Legend:
Format in all cases: physicochemical
[1] = Micromeritic properties of API and formula powders
From the text: Detection of micromeritic properties: The micromeritic properties of the SHEN26 compound raw material and the micromeritic properties of the mixed powder obtained by directly mixing the SHEN26 compound and other auxiliary materials were detected.
Preparation method: pulverizing the compound SHEN26, sieving the compound (sieving separately with a 40-mesh sieve and a 60-mesh sieve), mixing with a pharmaceutically acceptable excipient, performing dry granulation, adding an external lubricant, mixing, and filling capsules to give a capsule of the compound SHEN26. Observation of phenomenon: After dry granulation, the micromeritic properties were examined, and the results are shown in Table 12. Dissolution detection: The compound SHEN26 capsules obtained in Example 4 were separately detected for the dissolution, and the results are shown in Table 13.

[2] = Stability investigation - related substance; conditions: API, package N/A, condition N/A
Protocol: 37167-054A and 37167-054B were packed as described in Table 17 and Table 18, then separately placed under illumination (open), 40° C./75% RH (open), and 40° C./75% RH (closed) conditions for 0 day, 10 days, and 30 days, and detected for the dissolution and related substance.

[3] = Compatibility of raw material and auxiliary material; conditions: 60° C., 25° C./90% RH, 40° C./75% RH, illumination; 30 days
From the text: Operation: Common auxiliary materials of solid oral dosage forms were selected to be mixed with the SHEN26 drug substance in different ratios, and the mixtures were placed under different conditions and separately taken out at different time points. The compatibility of the drug substance and the auxiliary materials was judged by taking the appearance, the hygroscopic weight gain, the content and the related substance as indexes. For the ratio of the raw and auxiliary materials, according to “Basic Technical Guidelines for Research of Chemical Drug Formulation” and the specification of the formulation, the auxiliary material with a relatively large amount was determined according to a ratio of main drug:diluent=1:5, the auxiliary material with a moderate amount (such as croscarmellose sodium) was mixed according to a ratio of main drug:disintegrant=1:1, and the auxiliary material with a relatively small amount (such as magnesium stearate) was mixed according to a ratio of main drug:lubricant=5:1. The manufacturer information of the raw and auxiliary materials in the compatibility experiment and the ratio of raw and auxiliary materials are shown in Table 16. […]

Structure (SMILES): CC(C)C(=O)OC[C@H]1O[C@@](C#N)(c2ccc3c(N)ncnn23)[C@H](O)[C@@H]1O [SHEN26]
- Angle of repose (°) [1]: 40.98 °
- Bulk density [1]: 0.53 g/mL
- Carr index (%) [1]: 27.40%
- Tap density [1]: 0.73 g/mL
- Related substance % RRT 0.37 [2]: 0.26%
- Related substance % RRT 0.54 [2]: 0.35%
- Related substance % RRT 1.03 [2]: 0.15%
- Related substance % RRT 1.30 [2]: 0.05%
- Total impurity % [2]: 0.81%
- Compatibility with auxiliary materials (appearance, hygroscopic weight gain, content, related substance) [3]: good compatibility

Reference: patent publication US20250339377A1, “PHARMACEUTICAL COMPOSITION OF NUCLEOSIDE-DERIVED COMPOUND, PREPARATION METHOD THEREFOR, AND USE THEREOF” (SHENZHEN ANTIV PHARMA CO., LTD., priority 2022, published 2025)
